Test results as given in paper PMC11602115 (Journal of Medicinal Chemistry, 2017).
pEC50, pKi: −log10 of the molar value. Where two headings read alike, the source gives them in different places.

How the values were obtained:
[1] = molecular target: T1, human DP1 receptor (Homo sapiens, UniProt Q13258); experiment: HTRF cAMP assay, recombinant human DP1 receptor in CHO-K1 cells; assay type: cell-based; details: for Emax: CHO-K1, intrinsic activity relative to 1 μM PGD2, read-out: hDP1 % IA; for pEC50: HTRF (cAMP) human DP1 receptor assay, mean of at least three determinations, read-out: EC50 hDP1; for DP1 % I.A: cAMP HTRF agonist assay (Gs), Table Sup2
T1 construct: expressed in transfected cells
T1 sequence (Q13258 1-359): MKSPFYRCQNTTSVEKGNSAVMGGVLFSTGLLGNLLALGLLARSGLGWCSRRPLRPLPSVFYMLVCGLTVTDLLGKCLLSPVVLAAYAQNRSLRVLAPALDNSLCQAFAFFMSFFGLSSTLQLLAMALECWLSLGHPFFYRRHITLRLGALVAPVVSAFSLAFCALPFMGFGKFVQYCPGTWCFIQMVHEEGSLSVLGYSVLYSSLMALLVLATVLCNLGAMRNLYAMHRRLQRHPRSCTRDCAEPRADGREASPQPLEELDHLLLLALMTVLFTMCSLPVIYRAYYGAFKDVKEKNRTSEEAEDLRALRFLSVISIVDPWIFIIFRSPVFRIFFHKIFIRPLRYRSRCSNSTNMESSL

[2] = molecular target: dog IP (Canis lupus familiaris, UniProt A0A8I3MUB8); experiment: Radioligand binding, dog IP ([3H]-iloprost)
Chain of dog IP (A0A8I3MUB8 1-381): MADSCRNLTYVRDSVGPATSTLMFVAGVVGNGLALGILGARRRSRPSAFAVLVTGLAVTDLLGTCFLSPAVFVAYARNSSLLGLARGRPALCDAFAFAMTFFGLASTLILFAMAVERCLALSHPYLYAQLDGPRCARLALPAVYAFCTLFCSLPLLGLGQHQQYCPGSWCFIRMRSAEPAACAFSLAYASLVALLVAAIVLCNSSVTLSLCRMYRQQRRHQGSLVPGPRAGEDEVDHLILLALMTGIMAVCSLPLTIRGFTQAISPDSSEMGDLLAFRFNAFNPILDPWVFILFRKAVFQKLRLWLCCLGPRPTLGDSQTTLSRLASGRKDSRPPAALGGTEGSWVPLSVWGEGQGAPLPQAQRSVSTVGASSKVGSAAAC
Description: CHO-K1 cells expressing recombinant IP receptors were harvested, washed with ice-cold phosphate buffered saline, pH 7.4 (PBS), and then centrifuged at 48 000g for 20 min at 4 °C. The resulting cell pellet was then resuspended in ice-cold PBS containing 20 mM HEPES, pH 7.4, and 0.1 mM EDTA, homogenized on ice using a Brinkman Polytron, and centrifuged (48 000g for 20 min at 4 °C). This resuspension and centrifugation process was repeated one further time. Crude membrane pellets were stored at −80 °C until used for radioligand binding assays.
Assay incubations were terminated by rapid filtration through PerkinElmer GF/C filtration plates pretreated with 0.3% PEI, under vacuum pressure using a 96-well Packard filtration apparatus, followed by multiple washes with ice-cold wash buffer (PBS containing 20 mM HEPES and 0.1 mM EDTA, pH 7.4). Plates were then dried at 45 °C for a minimum of 2 h. Finally, 25 μL of BetaScint scintillation cocktail was added to each well and plates were counted in a Packard TopCount scintillation counter. In each competition study, test compounds were dosed at 10 concentrations with triplicate determinations at each test concentration. A reference compound, typically iloprost, was included in every runset for quality control purposes.

[3] = molecular target: EP2 (Homo sapiens, UniProt P43116); experiment: cAMP HTRF agonist assay, EP2; assay type: cell-based; details: for agonist activity at EP2: HTRF cAMP functional assay
Chain of EP2 (P43116 whole entry): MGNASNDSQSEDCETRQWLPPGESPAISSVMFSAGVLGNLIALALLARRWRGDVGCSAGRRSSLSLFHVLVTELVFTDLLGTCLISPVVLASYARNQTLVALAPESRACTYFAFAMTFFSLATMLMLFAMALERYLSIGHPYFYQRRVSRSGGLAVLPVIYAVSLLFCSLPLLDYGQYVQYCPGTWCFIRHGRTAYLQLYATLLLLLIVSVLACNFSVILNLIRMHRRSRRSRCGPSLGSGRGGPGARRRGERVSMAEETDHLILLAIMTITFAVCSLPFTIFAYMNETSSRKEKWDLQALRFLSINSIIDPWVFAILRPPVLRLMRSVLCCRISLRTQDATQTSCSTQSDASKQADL
Excerpt: Table Sup2: Data with some comparator compounds in functional assays. […]

[4] = molecular target: EP4 (Homo sapiens, UniProt P35408); experiment: cAMP HTRF agonist assay, EP4; assay type: cell-based; details: for agonist activity at EP4: HTRF cAMP functional assay
Chain of EP4 (P35408 whole entry): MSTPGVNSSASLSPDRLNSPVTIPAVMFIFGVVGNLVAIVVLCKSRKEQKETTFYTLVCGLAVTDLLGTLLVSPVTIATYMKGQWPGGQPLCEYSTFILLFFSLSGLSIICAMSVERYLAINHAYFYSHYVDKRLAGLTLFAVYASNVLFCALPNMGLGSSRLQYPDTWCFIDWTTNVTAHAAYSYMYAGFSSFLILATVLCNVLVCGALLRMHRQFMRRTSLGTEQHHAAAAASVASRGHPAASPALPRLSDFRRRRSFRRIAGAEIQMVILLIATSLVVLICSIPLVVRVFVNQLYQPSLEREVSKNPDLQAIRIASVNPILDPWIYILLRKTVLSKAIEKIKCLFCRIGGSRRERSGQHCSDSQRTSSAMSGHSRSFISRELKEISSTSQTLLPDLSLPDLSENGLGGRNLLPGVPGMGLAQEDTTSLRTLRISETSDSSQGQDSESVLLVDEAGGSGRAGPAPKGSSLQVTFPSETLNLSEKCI
Excerpt: Table Sup2: Data with some comparator compounds in functional assays.
Compound DP1 EP1 EP2 EP3v6 EP4
EC50, µµµµM (% I.A) EC50, µµµµM (% I.A) EC50, µµµµM (% I.A) EC50, µµµµM (% I.A) EC50, µµµµM (% I.A)
n = 3 n = 2 n = 8 n = 6 n = 6 […]

[5] = molecular target: IP (Homo sapiens, UniProt P43119); experiment: HTRF cAMP assay, recombinant human IP receptor stably expressed in CHO-K1 cells; assay type: cell-based; set-up: expressed in transfected cells
Chain of IP (P43119 whole entry): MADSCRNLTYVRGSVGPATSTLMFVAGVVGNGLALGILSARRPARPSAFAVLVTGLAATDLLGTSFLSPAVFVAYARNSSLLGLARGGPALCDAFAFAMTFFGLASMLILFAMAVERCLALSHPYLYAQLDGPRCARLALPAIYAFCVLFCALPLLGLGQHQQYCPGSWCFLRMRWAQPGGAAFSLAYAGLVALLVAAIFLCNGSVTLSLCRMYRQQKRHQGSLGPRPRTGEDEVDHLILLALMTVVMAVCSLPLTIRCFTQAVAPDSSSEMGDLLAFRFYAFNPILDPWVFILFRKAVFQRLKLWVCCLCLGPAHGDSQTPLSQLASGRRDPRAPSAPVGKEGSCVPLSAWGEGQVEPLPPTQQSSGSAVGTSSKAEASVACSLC

[6] = molecular target: rat IP (Rattus norvegicus, UniProt P43253); experiment: HTRF cAMP assay, recombinant rat IP receptor; assay type: cell-based; set-up: expressed in transfected cells; details: for pEC50: HTRF (cAMP) rat IP receptor assay, mean of at least three determinations; for Emax: read-out: rIP % IA
Chain of rat IP (P43253 whole entry): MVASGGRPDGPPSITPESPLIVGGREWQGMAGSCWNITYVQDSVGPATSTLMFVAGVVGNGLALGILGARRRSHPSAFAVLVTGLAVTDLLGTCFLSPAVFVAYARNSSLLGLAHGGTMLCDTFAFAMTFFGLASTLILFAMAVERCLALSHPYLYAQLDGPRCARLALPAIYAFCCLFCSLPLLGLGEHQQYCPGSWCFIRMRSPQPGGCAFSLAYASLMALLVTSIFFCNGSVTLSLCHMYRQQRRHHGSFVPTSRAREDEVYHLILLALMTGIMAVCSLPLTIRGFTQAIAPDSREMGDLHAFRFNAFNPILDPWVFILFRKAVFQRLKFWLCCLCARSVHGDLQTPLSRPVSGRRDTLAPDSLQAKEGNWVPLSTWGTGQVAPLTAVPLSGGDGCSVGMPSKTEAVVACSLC

[7] = molecular target: T2, EP3v6 (Homo sapiens, UniProt P43115); experiment: Radioligand binding, EP3v6 ([3H]-PGE2); set-up: purchased MDS Pharma (Taiwan) and CEREP (France), contract assays; details: for pKi: cloned human receptor
T2 sequence (P43115 1-374 isoform P43115-4): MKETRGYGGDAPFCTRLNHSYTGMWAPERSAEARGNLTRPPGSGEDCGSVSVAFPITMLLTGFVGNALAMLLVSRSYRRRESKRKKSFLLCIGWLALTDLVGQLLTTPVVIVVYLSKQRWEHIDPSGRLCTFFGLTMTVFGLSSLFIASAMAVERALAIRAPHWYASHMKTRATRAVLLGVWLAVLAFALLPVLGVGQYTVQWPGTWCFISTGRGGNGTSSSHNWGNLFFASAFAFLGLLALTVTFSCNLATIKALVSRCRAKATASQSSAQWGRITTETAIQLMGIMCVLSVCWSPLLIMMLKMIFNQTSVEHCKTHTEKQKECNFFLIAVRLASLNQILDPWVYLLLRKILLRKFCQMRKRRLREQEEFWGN
Description: Additional (non-IP) receptor binding assays were carried out by MDS Pharma (Taiwan) and CEREP (France).

[8] = read-out: Ki dog IP ([3H]-iloprost)

SMILES	Emax [1]	pEC50 [1]	DP1 % I.A [1]	pKi [2, 8]	agonist activity at EP2 [3]	pEC50 ([3]; cAMP HTRF agonist assay)	agonist activity at EP4 [4]	pEC50 ([4]; cAMP HTRF agonist assay)	Emax ([5]; CHO-K1, read-out: hIP % IA)	pEC50 [6]	Emax [6]	pKi [7]	Emax ([5]; CHO-K1; read-out: hIP % IA)	pEC50 ([5]; HTRF (cAMP) human IP receptor assay; mean of at least three determinations)	EP3/IP binding selectivity ratio ([7]; human EP3v6 Ki versus human IP Ki)	pKi [2]	EP2 % I.A ([3]; cAMP HTRF agonist assay)	EP4 % I.A ([4]; cAMP HTRF agonist assay)
O=C(O)COC[C@H]1CC[C@H](COC(=O)N(c2ccccc2)c2ccc(Cl)cc2)CC1 [5c, Sodium 2-(((1r,4r)-4-(((4-Chlorophenyl)(phenyl)carbamoyloxy)methyl)cyclohexyl)methoxy)acetate]	52%	6.07	52%	6.59	no significant agonist activity	< 5.00	no significant agonist activity	< 5.00	85%	6.28	88%	6.84						
O=C(O)COC[C@H]1CC[C@H](COC(=O)N(c2ccccc2)c2cccc(F)c2)CC1 [5g, 2-(((1r,4r)-4-(((3-Fluorophenyl)(phenyl)carbamoyloxy)methyl)cyclohexyl)methoxy)acetic Acid]	61%	5.56		6.74	no significant agonist activity		no significant agonist activity			6.55	83%	6.68	85%	8.06	30- to 50 fold			
CC#CCC(C)[C@H](O)/C=C/[C@@H]1[C@H]2C/C(=C/CCCC(=O)O)C[C@H]2C[C@H]1O (some centres unmarked) [iloprost]	42%	6.83	42%			6.84		6.39	101%	9.16	99%	5.43				8.77	110%	96%
